This is an account of results in US20110183954A1, “TRICYCLIC 2,4-DIAMINO-L,3,5-TRIAZINE DERIVATIVES USEFUL FOR THE TREATMENT OF CANCER AND MYELOPROLIFERATIVE DISORDERS” (ASTRAZENECA AB, priority 2008, published 2011).

Where only a bound is given, the exact number is not on record here.

The target in this experiment is human JAK2 (Homo sapiens, UniProt O60674). Briefly: Method 3 (JAK2): mobility shift assay on Caliper LC3000 reader, 15 μM ATP. Format: biochemical. On the set-up: human JAK2 (amino acids 831-1132, PLAZA database pAZB0359) expressed in insect cells; GST (N); made in house; host or cells: insect cells. The note with it: 0.5 nM JAK2 enzyme, 90 minutes, read-out: IC50 (JAK inhibitory activity, Method 3 (JAK2)). The method, then:
Janus kinase 2 (JAK2) activity was determined by measuring the kinase's ability to phosphorylate a tyrosine residue within a peptide substrate using a mobility shift assay on a Caliper LC3000 reader (Caliper, Hopkinton, Mass.), which measures fluorescence of the phosphorylated and unphosphorylated substrate and calculates a ratiometric value to determine percent turnover.
To measure JAK2 kinase activity, an in-house purified enzyme was used. The enzyme was N-terminal GST-tagged, recombinant, human JAK2 (amino acids 831-1132, PLAZA database pAZB0359) expressed in insect cells. After incubation of the kinase with a FAM labeled SRCtide substrate, adenosine triphosphate (ATP), and MgCl2 for 90 minutes at room temperature, the kinase reaction was stopped by the addition of 36 mM ethylenediaminetetraacetic acid (EDTA). The reaction was performed in 384 well microtitre plates and the reaction products were detected using the Caliper LC3000 Reader.

Chain of human JAK2 (O60674 831-1132): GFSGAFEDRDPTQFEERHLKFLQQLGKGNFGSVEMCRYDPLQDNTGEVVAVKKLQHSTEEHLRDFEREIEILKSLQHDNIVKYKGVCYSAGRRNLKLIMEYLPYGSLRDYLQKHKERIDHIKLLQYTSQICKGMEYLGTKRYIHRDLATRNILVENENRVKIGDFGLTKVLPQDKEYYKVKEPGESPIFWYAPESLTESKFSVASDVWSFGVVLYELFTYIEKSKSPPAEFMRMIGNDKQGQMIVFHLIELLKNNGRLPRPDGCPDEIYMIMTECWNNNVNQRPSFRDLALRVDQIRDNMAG

The term IC50 denotes the point on the concentration scale where inhibition reaches its midpoint. `[2H]C([2H])([2H])n1cnc(Nc2nc(NC(C)c3ncc(F)cc3F)nc(N3C([2H])([2H])C([2H])([2H])OC([2H])([2H])C3([2H])[2H])n2)c1` (single isomer, unassigned) [Example 13a, N-[1-(3,5-Difluoropyridin-2-yl)ethyl]-N′-[1-(^2H3)methyl-1H-imidazol-4-yl]-6-(^2H8)morpholin-4-yl-1,3,5-triazine-2,4-diamine]: the IC50 was 180 nM.

In the case of `[2H]C([2H])([2H])n1cnc(Nc2nc(NC(C)c3ncc(F)cc3F)nc(N3CCOCC3)n2)c1` (single isomer, unassigned) [Example 12b, N-[1-(3,5-Difluoropyridin-2-yl)ethyl]-N′-[1-(^2H3)methyl-1H-imidazol-4-yl]-6-morpholin-4-yl-1,3,5-triazine-2,4-diamine], the IC50 is below 3 nM.

Take `[2H]C([2H])([2H])n1cnc(Nc2nc(NC(C)c3ncc(F)cc3F)nc(N3C([2H])([2H])C([2H])([2H])OC([2H])([2H])C3([2H])[2H])n2)c1` (single isomer, unassigned) [Example 13b, N-[1-(3,5-Difluoropyridin-2-yl)ethyl]-N′-[1-(^2H3)methyl-1H-imidazol-4-yl]-6-(^2H8)morpholin-4-yl-1,3,5-triazine-2,4-diamine]: the IC50 is below 3 nM.

For the compound `[2H]C([2H])([2H])n1cnc(Nc2nc(NC(C)c3ncc(F)cc3F)nc(N3CCOCC3)n2)c1` (single isomer, unassigned) [Example 12a, N-[1-(3,5-Difluoropyridin-2-yl)ethyl]-N′-[1-(^2H3)methyl-1H-imidazol-4-yl]-6-morpholin-4-yl-1,3,5-triazine-2,4-diamine], the IC50 was found to be 138 nM.
